Assay results from patent US11071720B2, “Cancer therapy” (UCL Business Ltd, priority 2016, dated 2021).

Legend:
MLL-AF6 = biological target: T1, MLL-AF6 (Homo sapiens, UniProt P55196+Q03164); test: Western blot analysis of MLL-fusion protein proteolysis in MLL-AF6 positive cell line SHI-I; format: cell-based; conditions: SHI-I cells
T1 construct: AF6 (AFDN, P55196) portion as fusion partner; host or cells: SHI-I (SHI-1) human leukaemic cell line
Experimental: (§1) Human leukaemic cell lines (DSMZ) were cultured in Roswell Park Memorial Institute (RPMI) medium (Invitrogen), supplemented with 10% heat-inactivated FCS, 100 U/ml Penicillin (Invitrogen), 100 μg/ml Streptomycin (Invitrogen) and 2 mM L-glutamine (Invitrogen) (complete RPMI), or in Iscove's Modified Dulbecco's Medium (IMDM) (Invitrogen) supplemented with 20% heat-inactivated FCS, 100 U/ml Penicillin (Invitrogen), 100 μg/ml Streptomycin (Invitrogen) and 2 mM L-glutamine (Invitrogen)(complete IMDM).
(§2) SHI-I (MLL-AF6), THP-I (MLL-AF9) and MV4-11 (MLL-AF4) cell lines were treated with 300 nM of Disulfiram (Aldrich) or concentrations indicated and 1 μM of Copper chloride (Acros Organics) unless indicated otherwise for 16 hours.
(§3) Cells were lysed in Sample Reducing Buffer (200 mM DTT, 2% sodium dodecyl sulphate (SDS), 10% v/v Glycerol, 0.02% v/v Bromophenol Blue, 125 mM Tris HCl pH 6.8). The lysates were incubated for 5 minutes at 100° C., vortexed for 10 seconds and centrifuged at 13,200 rpm for 10 minutes at 4° C. The total cell lysate was then collected and stored at −20° C. or loaded immediately onto a polyacrylamide gel.
The whole cell lysate was electrophoresed in 7% Bis-Tris polyacrylamide gel and transferred to a odyssey nitrocellulose membrane (LI-COR).
After blocked for 1 hr for non-specific binding in PBS-T with 5% of non-fat milk, blots were incubated with primary antibodies (MLL, mouse monoclonal 1:2000, Millipore; Vinculin, rabbit monoclonal 1:10000, Abcam) overnight at 4° C., followed by secondary IRDye conjugated antibodies (mouse IEDye800CW 1:10000; rabbit IRDye680RD 1:10000, LI-COR) at room temperature.
Blots were visualized using the Odyssey CLx.
SHI-I (MLL-AF6), and THP-I (MLL-AF9) cell lines were treated with 300 nM of Diethyldithiocarbamate (Aldrich) and 1 μM of Copper chloride (Acros Organics) unless indicated otherwise for 16 hours.
SHI-I (MLL-AF6) cell line was treated with 100 nM or 75 nm of Disulfiram (Aldrich) and 100 nM of Auranofin or 10 μM of Curcumin supplemented with 1 μM of Copper chloride (Acros Organics) for 16 hours.

MLL-AF9 = biological target: T2, MLL-AF9 (Homo sapiens, UniProt P42568+Q03164); test: Western blot analysis of MLL-fusion protein proteolysis in MLL-AF9 cells (V6MA.3, THP-1); format: cell-based
T2 construct: AF9 (MLLT3, P42568) portion as fusion partner; host or cells: THP-1 (endogenous fusion); V6MA.3 (MLL-AF9 immortalised cord blood)
T2 sequence (Q03164 1147-1203 limits assumed, one chain of several): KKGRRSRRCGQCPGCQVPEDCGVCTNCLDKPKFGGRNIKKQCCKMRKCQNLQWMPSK
Experimental: as §1, §2, §3
The whole cell lysate was electrophoresed in 7% Bis-Tris polyacrylamide gel and transferred to a odyssey nitrocellulose membrane (LI-COR). […]

MLL fusion proteins = test: Western blot, proteolysis of MLL fusion proteins (effect of copper; primary patient sample); format: cell-based, human
[1] = tested on: MLL-AF9 and MLL-AF4 profiles; test: Gene Set Enrichment Analysis of treated SHI-I cells; format: cell-based, human; conditions: 16 hrs in the presence of copper
Experimental: as §2

HOXA9/HOXA10 and MEIS1 = test: RT-qPCR analysis of MLL target gene expression in SHI-I cells; format: cell-based, human; conditions: 16 hrs of treatment
Experimental: as §2

H3K4me3 = test: Western blot analysis of H3K4me3 in MLL rearranged cell lines; format: cell-based, human; conditions: various MLL rearranged cell lines, 16 hrs in the presence of copper
MLL rearranged cells = test: Methylcellulose colony formation assay; format: cell-based, human; conditions: 300 nM disulfiram; MLL rearranged cells vs other leukemic cell lines and CD34+ cord blood
Experimental: FIGS. 6A and 6B show, as explained in Example 1: in FIG. 6A, relative CFU corresponding to colony formation in MLL rearranged cells, other leukemic cell lines and CD34+ cord blood, in a methylcellulose colony formation assay after treatment of the cells with 300 nM disulfiram (equal numbers of cells were plated and normalised CFU frequency is shown, with error bars representing standard deviation); and, in FIG. 6B, the corresponding treated and control plates themselves.

[2] = 16 hrs treatment in the presence of copper

T1 sequence (Q03164 1146-1214 limits assumed, one chain of several): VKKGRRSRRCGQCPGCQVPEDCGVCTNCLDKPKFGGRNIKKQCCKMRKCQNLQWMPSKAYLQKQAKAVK

SMILES	proteolysis of the MLL-fusion protein (Western blot) (MLL-AF6; [2])	proteolysis of the MLL-fusion protein (Western blot) (MLL-AF9; MLL-AF9 positive cell line THP-1, 16 hrs treatment in the presence of copper)	proteolysis of the MLL-fusion protein (Western blot) (MLL-AF6; 16 hrs, in the presence of copper, with or without thioredoxin reductase inhibitors Auranofin and Curcumin)	proteolysis of the MLL-fusion protein (Western blot) (MLL-AF9; MLL-AF9 immortalised cord blood V6MA.3, 16 hrs treatment in the presence of copper)	proteolysis of the MLL-fusion protein (Western blot) (MLL fusion proteins)	Gene Set Enrichment Analysis versus published MLL-AF9 and MLL-AF4 profiles [1]	MLL target gene expression level of HOXA9/HOXA10 and MEIS1, normalised to 18S (RT-qPCR) (HOXA9/HOXA10 and MEIS1)	H3K4me3 level (Western blot) (H3K4me3)	relative CFU corresponding to colony formation (MLL rearranged cells)
CCN(CC)C(=S)S [diethyldithiocarbamate, Diethyldithiocarbamic acid]	showing proteolysis of the MLL-fusion protein	showing proteolysis of the MLL-fusion protein	–	–	–	–	–	–	–
CCN(CC)C(=S)SSC(=S)N(CC)CC [disulfiram]	showing proteolysis of the MLL-fusion protein	–	showing proteolysis of the MLL-fusion protein	showing proteolysis of the MLL-fusion protein	showing proteolysis of the MLL-fusion protein in a primary patient sample	negative enrichment to both published MLL-AF9 and MLL-AF4 profiles	efficient down-regulation of the target genes	showing a decrease in H3K4me3	substantially higher effect than in other (non-MLL) leukemic cell lines and CD34+ cord blood
